From US20200079765A1, “SUBSTITUTED HETEROARYL PYRROLONES AND SALTS THEREOF AND USE THEREOF AS HERBICIDAL ACTIVE SUBSTANCES” (Bayer CropScience Aktiengesellschaft, priority 2016, published 2020)

Columns and labels:
[1] = target: T1, photosystem II (PS II) (Spinacia oleracea, UniProt P69560); test: Measurement of the PS II activity in thylakoid membranes (DCPIP reduction, Experimental Part 3, Table E1); type: biochemical; conditions: spinach thylakoid membranes
T1 construct: the chloroplasts were osmotically ruptured and the thylakoid membranes were then obtained by centrifugation; from tissue; host or cells: thylakoid membranes from fresh spinach leaves
Method in brief: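 Spinach leaf thylakoid membranes in 50 mM phosphate pH 6.8, 10 mM KCl, 120 μM DCPIP, under light. Compounds added from 100 μM DMSO solution (2.5% DMSO final). DCPIP reduction read as absorbance decrease at 595 nm over 10 min at 22 °C, reported as percent-inhibition classes.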

[2] = system: Stellaria media; test: Post-emergence herbicidal action (Experimental Part 1, A); type: in vivo; conditions: rated visually after about 3 weeks
Procedure: (§1) Seeds of monocotyledonous and dicotyledonous weeds and crop plants were placed in sandy loam in plastic or wood-fiber pots, covered with soil and cultivated in a greenhouse under controlled growth conditions. 2 to 3 weeks after sowing, the test plants were treated at the one-leaf stage. The compounds of the invention, formulated in the form of wettable powders (WP) or as emulsion concentrates (EC), were then sprayed onto the green parts of the plants as aqueous suspension or emulsion with addition of 0.5% additive at a water application rate of 600 l/ha (converted). After the test plants had been kept in the greenhouse under optimum growth conditions for about 3 weeks, the activity of the preparations was rated visually in comparison to untreated controls. For example, 100% activity=the plants have died, 0% activity=like control plants. Tables A1 to A14 below show the effects of selected compounds of the general formula (I) according to Tables I.1 to I.116 on various harmful plants and an application rate corresponding to 1280 g/ha or 320 g/ha, which were obtained by the experimental procedure mentioned above.

[3] = system: Polygonum convolvulus; test: as above; type: in vivo; conditions: rated visually after about 3 weeks
Procedure: as §1

[4] = system: Alopecurus myosuroides; test: as above; type: in vivo; conditions: about 3 weeks after treatment, 100% = plants have died, 0% = like control plants
Procedure: as §1

[5] = system: Viola tricolor; test: as above; type: in vivo; conditions: rated visually after about 3 weeks
Procedure: as §1

[6] = system: Echinochloa crus-galli; test: as above; type: in vivo; conditions: about 3 weeks after treatment, 100% = plants have died, 0% = like control plants
Procedure: as §1

[7] = system: Abutilon theophrasti; test: as above; type: in vivo; conditions: about 3 weeks after treatment, 100% = plants have died, 0% = like control plants
Procedure: as §1

[8] = system: Ipomoea purpurea; test: as above; type: in vivo; conditions: rated visually after about 3 weeks
Procedure: as §1

[9] = system: Setaria viridis; test: as above; type: in vivo; conditions: about 3 weeks after treatment, 100% = plants have died, 0% = like control plants
Procedure: as §1

[10] = system: Avena fatua; test: as above; type: in vivo; conditions: rated visually after about 3 weeks
Procedure: as §1

[11] = system: Amaranthus retroflexus; test: as above; type: in vivo; conditions: about 3 weeks after treatment, 100% = plants have died, 0% = like control plants
Procedure: as §1

[12] = system: Matricaria inodora; test: as above; type: in vivo; conditions: rated visually after about 3 weeks
Procedure: as §1

[13] = system: Hordeum murinum; test: as above; type: in vivo; conditions: application rate 1280 g/ha, rated visually after about 3 weeks
Procedure: as §1

[14] = system: Veronica persica; test: as above; type: in vivo; conditions: application rate 1280 g/ha, about 3 weeks after treatment, 100% = plants have died, 0% = like control plants
Procedure: as §1

CCC(=O)OC1C(C)=CC(=O)N1c1cc(C(C)(C)C)on1 (stereo not drawn) [I.5-162]
100%: Stellaria media, herbicidal activity ([2]; application rate 320 g/ha) | Stellaria media, herbicidal activity ([2]; application rate 1280 g/ha) | Polygonum convolvulus, herbicidal activity ([3]; application rate 320 g/ha) | Polygonum convolvulus, herbicidal activity ([3]; application rate 1280 g/ha) | herbicidal activity on Alopecurus myosuroides (visual rating vs untreated controls) ([4]; application rate 1280 g/ha) | Viola tricolor, herbicidal activity ([5]; application rate 320 g/ha) | Viola tricolor, herbicidal activity ([5]; application rate 1280 g/ha) | herbicidal activity on Echinochloa crus-galli (visual rating vs untreated controls) ([6]; application rate 1280 g/ha) | herbicidal activity on Abutilon theophrasti (visual rating vs untreated controls) ([7]; application rate 320 g/ha) | herbicidal activity on Abutilon theophrasti (visual rating vs untreated controls) ([7]; application rate 1280 g/ha) | herbicidal activity on Setaria viridis (visual rating vs untreated controls) ([9]; application rate 320 g/ha) | herbicidal activity on Setaria viridis (visual rating vs untreated controls) ([9]; application rate 1280 g/ha) | Avena fatua, herbicidal activity ([10]; application rate 1280 g/ha) | herbicidal activity on Amaranthus retroflexus (visual rating vs untreated controls) ([11]; application rate 1280 g/ha) | Matricaria inodora, herbicidal activity ([12]; application rate 1280 g/ha) | Hordeum murinum, herbicidal activity [13] | herbicidal activity on Veronica persica (visual rating vs untreated controls) [14]
+++ (90%>inhibition≥70%): Effect (inhibition of PS II activity) [1]
90%: herbicidal activity on Alopecurus myosuroides (visual rating vs untreated controls) ([4]; application rate 320 g/ha) | Ipomoea purpurea, herbicidal activity ([8]; application rate 1280 g/ha)

CC1=CC(=O)N(c2cc(C(C)(C)C)on2)C1O (stereo not drawn) [I.1-162, 5-Hydroxy-4-methyl-1-(5-tert-butyl-1,2-isoxazol-3-yl)-1,5-dihydro-2H-pyrrol-2-one]
++++ (inhibition≥90%): Effect (inhibition of PS II activity) [1]
90%: herbicidal activity on Alopecurus myosuroides (visual rating vs untreated controls) ([4]; application rate 320 g/ha) | Avena fatua, herbicidal activity ([10]; application rate 320 g/ha)
100%: Stellaria media, herbicidal activity ([2]; application rate 320 g/ha) | Stellaria media, herbicidal activity ([2]; application rate 1280 g/ha) | Polygonum convolvulus, herbicidal activity ([3]; application rate 320 g/ha) | Polygonum convolvulus, herbicidal activity ([3]; application rate 1280 g/ha) | herbicidal activity on Alopecurus myosuroides (visual rating vs untreated controls) ([4]; application rate 1280 g/ha) | Viola tricolor, herbicidal activity ([5]; application rate 320 g/ha) | Viola tricolor, herbicidal activity ([5]; application rate 1280 g/ha) | herbicidal activity on Echinochloa crus-galli (visual rating vs untreated controls) ([6]; application rate 320 g/ha) | herbicidal activity on Echinochloa crus-galli (visual rating vs untreated controls) ([6]; application rate 1280 g/ha) | herbicidal activity on Abutilon theophrasti (visual rating vs untreated controls) ([7]; application rate 320 g/ha) | herbicidal activity on Abutilon theophrasti (visual rating vs untreated controls) ([7]; application rate 1280 g/ha) | Ipomoea purpurea, herbicidal activity ([8]; application rate 320 g/ha) | Ipomoea purpurea, herbicidal activity ([8]; application rate 1280 g/ha) | herbicidal activity on Setaria viridis (visual rating vs untreated controls) ([9]; application rate 320 g/ha) | herbicidal activity on Setaria viridis (visual rating vs untreated controls) ([9]; application rate 1280 g/ha) | Avena fatua, herbicidal activity ([10]; application rate 1280 g/ha) | herbicidal activity on Amaranthus retroflexus (visual rating vs untreated controls) ([11]; application rate 320 g/ha) | herbicidal activity on Amaranthus retroflexus (visual rating vs untreated controls) ([11]; application rate 1280 g/ha) | Matricaria inodora, herbicidal activity ([12]; application rate 320 g/ha) | Matricaria inodora, herbicidal activity ([12]; application rate 1280 g/ha) | Hordeum murinum, herbicidal activity [13] | herbicidal activity on Veronica persica (visual rating vs untreated controls) [14]
